Assay [1] is described as follows: Cytotoxicity against human NALM6 cells after 72 hrs by Cell-Titer Glo assay. In kind it is functional, cell-based. Conditions: NALM-6, 72 h.
Assay [2] is described as follows: Cytotoxicity against human SEM cells after 72 hrs by Cell-Titer Glo assay. The class given is functional, cell-based.
In assay [3] the test system is Raji. Description: Cytotoxicity against human Raji cells after 72 hrs by Cell-Titer Glo assay. The class given is functional, cell-based.
Assay [4] relates to HepG2. The assay is described as follows: Cytotoxicity against human HepG2 cells after 72 hrs by Cell-Titer Glo assay. In kind it is functional, cell-based. As to conditions: HepG2, 72 h.
Assay [5] has as its system HEK293. The assay is described as follows: Cytotoxicity against HEK293 cells after 72 hrs by Cell-Titer Glo assay. In kind it is cell-based. Conditions: Homo sapiens, HEK293, 72 h.
The subject of assay [6] is BJ. The assay is described as follows: Cytotoxicity against human BJ cells after 72 hrs by Cell-Titer Glo assay. In kind it is cell-based.
Assay [7] deals with Jurkat. The assay is described as follows: Cytotoxicity against human Jurkat cells after 72 hrs by Cell-Titer Glo assay. The class given is functional, cell-based.

Usually EC50 stands for the midpoint of the concentration-response curve. Higher therefore signals weaker potency. `COc1ccc(/C=C/[C@@](C)(/C=C/c2ccc(O)cc2)CCC=C(C)C)cc1`: the EC50 in assay [1] is more than 43.5 µM; in assay [2] it was more than 36.6 µM; in assay [3] it was more than 26 µM; in assay [4], more than 52.1 µM; in assay [5], more than 36.6 µM; in assay [6] it was more than 36.6 µM. In assay [7], the EC50 is more than 49 µM.

`C=C[C@@](C)(/C=C/c1ccc(Nc2ccc(F)cc2)cc1)CCC=C(C)C`: the EC50 in assay [1] was more than 43.5 µM; in assay [2], more than 36.6 µM; in assay [3], more than 26 µM; in assay [4], more than 52.1 µM; in assay [5], more than 36.6 µM; in assay [6], more than 36.6 µM.

In the case of `C=C[C@@](C)(/C=C/c1ccc(Nc2ccc(OC)c(OC)c2)cc1)CCC=C(C)C`, the EC50 in assay [1] is more than 43.5 µM; in assay [2] it was more than 36.6 µM; in assay [3] it was more than 26 µM; in assay [4], more than 52.1 µM; in assay [5] it was more than 36.6 µM; in assay [6], more than 36.6 µM.

For `C=C[C@@](C)(/C=C/c1ccc(-c2ccc(Cl)c(Cl)c2)cc1)CCC=C(C)C`, the EC50 in assay [1] is more than 43.5 µM; in assay [2], more than 36.6 µM; in assay [3] it was more than 26 µM; in assay [4], more than 52.1 µM; in assay [5], more than 36.6 µM; in assay [6], more than 36.6 µM.

Take `C=C[C@@](C)(/C=C/c1ccc(-c2ccccc2)cc1)CCC=C(C)C`: the EC50 in assay [1] is more than 43.5 µM; in assay [2] it was more than 36.6 µM; in assay [3], more than 26 µM; in assay [4], more than 52.1 µM; in assay [5] it was more than 36.6 µM; in assay [6], more than 36.6 µM.

In the case of `C=C[C@@](C)(/C=C/c1ccc(Nc2ccc3c(c2)OCO3)cc1)CCC=C(C)C`, the EC50 in assay [1] is more than 43.5 µM; in assay [2], more than 36.6 µM; in assay [3] it was more than 26 µM; in assay [4], more than 52.1 µM; in assay [5], more than 36.6 µM; in assay [6], more than 36.6 µM.

Consider `C=C[C@@](C)(/C=C/c1ccc(Nc2c(F)cc(F)cc2F)cc1)CCC=C(C)C`, for which the EC50 was more than 43.5 µM in assay [1]; more than 36.6 µM in assay [2]; more than 26 µM in assay [3]; more than 52.1 µM in assay [4]; more than 36.6 µM in assay [5]; more than 36.6 µM in assay [6].

Take `C=C[C@@](C)(/C=C/c1ccc(Nc2ccc(OC)cc2)cc1)CCC=C(C)C`: the EC50 is more than 43.5 µM in assay [1]; more than 36.6 µM in assay [2]; more than 26 µM in assay [3]; more than 52.1 µM in assay [4]; more than 36.6 µM in assay [5]; more than 36.6 µM in assay [6].

On to `C=C[C@@](C)(/C=C/c1ccc(Nc2ccc(F)c(F)c2)cc1)CCC=C(C)C`, for which the concentration for a half-maximal effect (EC50) is more than 43.5 µM in assay [1]; more than 36.6 µM in assay [2]; more than 26 µM in assay [3]; more than 52.1 µM in assay [4]; more than 36.6 µM in assay [5]; more than 36.6 µM in assay [6].

`C=C[C@@](C)(/C=C/c1ccc(Nc2ccc(OC)c(F)c2)cc1)CCC=C(C)C`: the EC50 is more than 43.5 µM in assay [1]; more than 36.6 µM in assay [2]; more than 26 µM in assay [3]; more than 52.1 µM in assay [4]; more than 36.6 µM in assay [5]; more than 36.6 µM in assay [6].

As for `CC(C)=CCC[C@](C)(/C=C/c1ccc(O)cc1)/C=C/c1cccc(Cl)c1`, the EC50 in assay [1] was more than 43.5 µM; in assay [2], more than 36.6 µM; in assay [3] it was more than 26 µM; in assay [4] it was more than 52.1 µM; in assay [5] it was more than 36.6 µM; in assay [6] it was more than 36.6 µM.

For `CC(C)=CCC[C@@](C)(/C=C/c1ccc(C)cc1)/C=C/c1ccc(O)cc1`, the EC50 in assay [1] was more than 43.5 µM; in assay [2] it was more than 36.6 µM; in assay [3], more than 26 µM; in assay [4], more than 52.1 µM; in assay [5] it was more than 36.6 µM; in assay [6] it was more than 36.6 µM.

On to `C=C[C@@](C)(/C=C/c1ccc(Nc2ccc(Cl)c(Cl)c2)cc1)CCC=C(C)C`, for which the EC50 in assay [1] was more than 43.5 µM; in assay [2] it was more than 36.6 µM; in assay [3], more than 26 µM; in assay [4], more than 52.1 µM; in assay [5] it was more than 36.6 µM; in assay [6], more than 36.6 µM.

As to `CC(C)=CCC[C@](C)(/C=C/c1ccc(O)cc1)/C=C/c1cccc(F)c1`, the EC50 in assay [1] was more than 43.5 µM; in assay [2] it was more than 36.6 µM; in assay [3], more than 26 µM; in assay [4] it was more than 52.1 µM; in assay [5] it was more than 36.6 µM; in assay [6], more than 36.6 µM.

Take `C=C[C@@](C)(/C=C/c1ccc(-c2cccc(F)c2)cc1)CCC=C(C)C`: the EC50 in assay [1] was more than 43.5 µM; in assay [2], more than 36.6 µM; in assay [3], more than 26 µM; in assay [4], more than 52.1 µM; in assay [5], more than 36.6 µM; in assay [6] it was more than 36.6 µM.

Take `C=C[C@@](C)(/C=C/c1ccc(Nc2cccc(OC(F)(F)F)c2)cc1)CCC=C(C)C`: the EC50 was more than 43.5 µM in assay [1]; more than 36.6 µM in assay [2]; more than 26 µM in assay [3]; more than 52.1 µM in assay [4]; more than 36.6 µM in assay [5]; more than 36.6 µM in assay [6].

Take `C=C[C@@](C)(/C=C/c1ccc(Nc2ccc(Cl)cc2)cc1)CCC=C(C)C`: the EC50 in assay [1] is more than 43.5 µM; in assay [2], more than 36.6 µM; in assay [3] it was more than 26 µM; in assay [4], more than 52.1 µM; in assay [5], more than 36.6 µM; in assay [6], more than 36.6 µM.

As for `CC(C)=CCC[C@](C)(/C=C/c1ccc(O)cc1)/C=C/c1ccc(C#N)cc1`, the EC50 in assay [1] was more than 43.5 µM; in assay [2], more than 36.6 µM; in assay [3], more than 26 µM; in assay [4], more than 52.1 µM; in assay [5], more than 36.6 µM; in assay [6], more than 36.6 µM.

As to `C=C[C@@](C)(/C=C/c1ccc(Nc2ccc(Cl)c(F)c2)cc1)CCC=C(C)C`, the EC50 in assay [1] was more than 43.5 µM; in assay [2] it was more than 36.6 µM; in assay [3] it was more than 26 µM; in assay [4], more than 52.1 µM; in assay [5] it was more than 36.6 µM; in assay [6], more than 36.6 µM.

`C=C[C@@](C)(/C=C/c1ccc(Nc2cc(C(F)(F)F)cc(C(F)(F)F)c2)cc1)CCC=C(C)C`: the EC50 in assay [1] was more than 43.5 µM; in assay [2] it was more than 36.6 µM; in assay [3] it was more than 26 µM; in assay [4], more than 52.1 µM; in assay [5], more than 36.6 µM; in assay [6] it was more than 36.6 µM.

Take `C=C[C@@](C)(/C=C/c1ccc(Nc2cc(F)c(F)cc2F)cc1)CCC=C(C)C`: the EC50 is more than 43.5 µM in assay [1]; more than 36.6 µM in assay [2]; more than 26 µM in assay [3]; more than 52.1 µM in assay [4]; more than 36.6 µM in assay [5]; more than 36.6 µM in assay [6].

On to `C=C[C@@](C)(/C=C/c1ccc(-c2cccc(Br)c2)cc1)CCC=C(C)C`, for which the EC50 in assay [1] was more than 43.5 µM; in assay [2], more than 36.6 µM; in assay [3] it was more than 26 µM; in assay [4] it was more than 52.1 µM; in assay [5], more than 36.6 µM; in assay [6], more than 36.6 µM.

For the compound `C=C[C@@](C)(/C=C/c1ccc(Nc2cccc(C(F)(F)F)c2)cc1)CCC=C(C)C`, the EC50 in assay [1] is more than 43.5 µM; in assay [2] it was more than 36.6 µM; in assay [3] it was more than 26 µM; in assay [4], more than 52.1 µM; in assay [5], more than 36.6 µM; in assay [6], more than 36.6 µM.

Turning to `C=C[C@@](C)(/C=C/c1ccc(Nc2cc(F)c(F)c(F)c2)cc1)CCC=C(C)C`, the EC50 in assay [1] was more than 43.5 µM; in assay [2], more than 36.6 µM; in assay [3], more than 26 µM; in assay [4], more than 52.1 µM; in assay [5] it was more than 36.6 µM; in assay [6] it was more than 36.6 µM.

`C=C[C@@](C)(/C=C/c1ccc(-c2ccc(Cl)cc2)cc1)CCC=C(C)C`: the EC50 in assay [1] was more than 43.5 µM; in assay [2], more than 36.6 µM; in assay [3], more than 26 µM; in assay [4], more than 52.1 µM; in assay [5], more than 36.6 µM; in assay [6] it was more than 36.6 µM.

On to `C=C[C@@](C)(/C=C/c1ccc(Nc2ccc(OC(F)(F)F)cc2)cc1)CCC=C(C)C`, for which the EC50 in assay [1] is more than 43.5 µM; in assay [2], more than 36.6 µM; in assay [3], more than 26 µM; in assay [4] it was more than 52.1 µM; in assay [5] it was more than 36.6 µM; in assay [6], more than 36.6 µM.

For `CC(C)=CCC[C@@](C)(/C=C/c1ccccc1)/C=C/c1ccc(O)cc1`, the EC50 is more than 43.5 µM in assay [1]; more than 36.6 µM in assay [2]; more than 26 µM in assay [3]; more than 52.1 µM in assay [4]; more than 36.6 µM in assay [5]; more than 36.6 µM in assay [6].

Turning to `C=C[C@@](C)(/C=C/c1ccc(Nc2ccccc2)cc1)CCC=C(C)C`, the EC50 in assay [1] was more than 43.5 µM; in assay [2], more than 36.6 µM; in assay [3] it was more than 26 µM; in assay [4], more than 52.1 µM; in assay [5] it was more than 36.6 µM; in assay [6], more than 36.6 µM.

On to `C=C[C@@](C)(/C=C/c1ccc(-c2c(F)c(F)c(F)c(F)c2F)cc1)CCC=C(C)C`, for which the EC50 was more than 43.5 µM in assay [1]; more than 36.6 µM in assay [2]; more than 26 µM in assay [3]; more than 52.1 µM in assay [4]; more than 36.6 µM in assay [5]; more than 36.6 µM in assay [6].

In the case of `C=C[C@@](C)(/C=C/c1ccc(-c2ccc(F)cc2)cc1)CCC=C(C)C`, the EC50 was more than 43.5 µM in assay [1]; more than 36.6 µM in assay [2]; more than 26 µM in assay [3]; more than 52.1 µM in assay [4]; more than 36.6 µM in assay [5]; more than 36.6 µM in assay [6].

`C=C[C@@](C)(/C=C/c1ccc(Nc2ccc(C(F)(F)F)cc2)cc1)CCC=C(C)C`: the EC50 is more than 43.5 µM in assay [1]; more than 36.6 µM in assay [2]; more than 26 µM in assay [3]; more than 52.1 µM in assay [4]; more than 36.6 µM in assay [5]; more than 36.6 µM in assay [6].

With `C=C[C@@](C)(/C=C/c1ccc(Nc2cc(F)cc(F)c2)cc1)CCC=C(C)C`, the EC50 in assay [1] was more than 43.5 µM; in assay [2] it was more than 36.6 µM; in assay [3], more than 26 µM; in assay [4] it was more than 52.1 µM; in assay [5] it was more than 36.6 µM; in assay [6], more than 36.6 µM.
